Reference: US4737362A, “Hair treatment composition” (Suntory Limited, priority 1983, dated 1988)

Target: testosterone 5α-reductase
Experiment: 5α-reductase inhibitory activity (conversion of radiolabelled testosterone to 5α-dihydrotestosterone, microsomal enzyme specimen)
Assay type: biochemical, rats
Settings: rat prostate microsomes; pH 6.6; 25° C.; 60 minutes; 8.5 pmol labelled testosterone
Procedure: The 5α-reductase inhibitory activity was determined as follows.
Prostate gland cells of rats were crushed and a specimen of testosterone 5α-reductase was then prepared by separating microsome from the crushed liquid mixture. The conversion of the testosterone to 5α-dihydrotestosterone by the use of the above-prepared enzyme specimen was monitored by radioisotopically labelled testosterone. The reaction mixture was extracted with ethyl acetate and the extract was developed twice by silica gel thin layer chromatography (solvent system, dichloromethane:cyclohexane:acetone=15:4:1). The amount of 5α-dihydrotestosterone was determined from the intensities of the radioactivity.
A 30 μl amount of a 0.05 M phosphate buffer (pH=6.6), 10 μl of an enzyme specimen, 8.5 pmol of labelled testosterone, 50 nmol of a reduced form of NADP (nicotinamide adenine dinucleotide phosphate), and 10 μl of a test sample were mixed (final volume […]). The mixture was incubated at a temperature of 25° C. for 60 minutes.
The reaction was stopped by the addition of 100 μl of ethyl acetate, and the reaction mixture was extracted by vigorous shaking. The extract was developed in the same manner as mentioned above, and the intensity of the radioisotope was measured by using a scintillation counter.
The above-mentioned determination was applied to samples having various concentrations. […]

Compound | IC50 [mM]
CC/C=C\C/C=C\C/C=C\CCCCCCCC(=O)O [Linolenic acid] | 1.6
CCCCCCCCCCCCCCCCCC(=O)O [Stearic acid] | 1.3
